Laboratory results published in patent US5824699A, “Carbazole inhibitors of Cox-2” (American Home Products Corporation, priority 1998, dated 1998).
pIC50: −log10 of the molar value. Where a name gives a salt, the structure may show the parent alone. Read-outs that look alike come from different tables or passages of the source.

Legend:
[1] = target: T1, human COX-2 (rhCOX-2) (Homo sapiens, UniProt P35354); test: inhibition of microsomal human recombinant COX-2 (PGH2 converted to PGF2a, quantified by EIA); format: biochemical; settings: for inhibition at 1 µM: rhCOX-2, at 1 μM; for pIC50: rhCOX-2, value in parentheses = IC50, 30 μM arachidonic acid, read-out: % Inhib of rhCOX-2 (IC50); for inhibition at 3.3 µM: rhCOX-2, at 3.3 μM (* sodium salt for Example 19); for inhibition at 3 µM: rhCOX-2, at 3 μM
T1 construct: made in house; host or cells: Sf9 or CHO cells (microsomal preparation)
T1 sequence (P35354 18-604): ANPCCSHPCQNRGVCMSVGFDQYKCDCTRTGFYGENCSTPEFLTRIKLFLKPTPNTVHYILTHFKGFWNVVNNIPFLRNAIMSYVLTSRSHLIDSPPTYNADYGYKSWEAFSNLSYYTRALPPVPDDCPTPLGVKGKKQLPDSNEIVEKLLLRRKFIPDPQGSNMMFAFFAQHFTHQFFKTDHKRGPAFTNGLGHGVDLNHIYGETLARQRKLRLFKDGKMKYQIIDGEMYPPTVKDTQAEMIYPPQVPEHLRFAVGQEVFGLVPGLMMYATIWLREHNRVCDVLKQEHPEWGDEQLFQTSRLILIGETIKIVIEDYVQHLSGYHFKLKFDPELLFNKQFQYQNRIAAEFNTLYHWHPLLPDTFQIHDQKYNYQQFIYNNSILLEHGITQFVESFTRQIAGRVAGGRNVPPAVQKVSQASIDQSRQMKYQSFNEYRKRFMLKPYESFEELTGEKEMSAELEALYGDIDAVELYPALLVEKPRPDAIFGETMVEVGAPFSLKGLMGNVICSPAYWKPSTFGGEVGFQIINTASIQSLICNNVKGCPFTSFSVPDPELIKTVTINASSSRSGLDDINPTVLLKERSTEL
Description: (§1) The microsomal human recombinant enzymes were diluted with buffer (100 mM Tris, pH 7.8 at 37° C.) containing 0.5 mM phenol (964 μl total volume). The enzyme preparations were preincubated with vehicle (DMSO) or compounds in DMSO (1% DMSO in final assay) for 30 min at […]
(§2) The reaction was incubated for 35 s (maximum level of PGH2 accumulation as determined from time course studies), and terminated by addition of 50-60 μL of SnCl2 (1 mg/ml) in 0.1N HCl. PGH2 is quantitatively converted to PGF2a by this reaction ([…] of total conversion). The pH of each tube is adjusted to pH 3.0-3.5 with 1N NaOH and extracted twice with 1.5 ml of ethyl acetate (75-90% efficiency per extraction). Combined ethyl acetate layers were dried under N2 (g) and redissolved in EIA buffer (2.0 ml), and PGF2a was quantified by EIA.

[2] = target: T2, human COX-1 (rhCOX-1) (Homo sapiens, UniProt P23219); test: inhibition of microsomal human recombinant COX-1 (PGH2 converted to PGF2a, quantified by EIA); format: biochemical
T2 construct: made in house; host or cells: Sf9 or CHO cells (microsomal preparation)
Description: as §1, §2

[3] = Rogers et al., Neurology 43, 1609-1611 (1993); cited from earlier work
[4] = tested on: COX-2; settings: Glaser et al., Eur. J. Pharmacol. 281, 107-111 (1995); cited from earlier work
[5] = cited from earlier work
[6] = tested on: prostaglandin synthesis; settings: Humber et al., J. Med. Chem. 31, 1712-1719 (1988); U.S. Pat. No. 4,686,213; cited from earlier work
[7] = Humber et al., J. Med. Chem. 31, 1712-1719 (1988); cited from earlier work
[8] = Table 2, read-out: % Inhib of rhCOX-2
[9] = Table 1, rhCOX-1, at 90 μM, read-out: % Inhibition of rhCOX-1
[10] = Table 3, read-out: Inhib rhCOX-2
[11] = Table 3, rhCOX-1, at 90 μM (* sodium salt for Example 19), read-out: % Inhib rhCOX-1
[12] = Table 1, read-out: % Inhib of rhCOX-2
[13] = Table 2, rhCOX-1, at 90 μM, read-out: % Inhibn of rhCOX-1

T2 sequence (P23219 24-599): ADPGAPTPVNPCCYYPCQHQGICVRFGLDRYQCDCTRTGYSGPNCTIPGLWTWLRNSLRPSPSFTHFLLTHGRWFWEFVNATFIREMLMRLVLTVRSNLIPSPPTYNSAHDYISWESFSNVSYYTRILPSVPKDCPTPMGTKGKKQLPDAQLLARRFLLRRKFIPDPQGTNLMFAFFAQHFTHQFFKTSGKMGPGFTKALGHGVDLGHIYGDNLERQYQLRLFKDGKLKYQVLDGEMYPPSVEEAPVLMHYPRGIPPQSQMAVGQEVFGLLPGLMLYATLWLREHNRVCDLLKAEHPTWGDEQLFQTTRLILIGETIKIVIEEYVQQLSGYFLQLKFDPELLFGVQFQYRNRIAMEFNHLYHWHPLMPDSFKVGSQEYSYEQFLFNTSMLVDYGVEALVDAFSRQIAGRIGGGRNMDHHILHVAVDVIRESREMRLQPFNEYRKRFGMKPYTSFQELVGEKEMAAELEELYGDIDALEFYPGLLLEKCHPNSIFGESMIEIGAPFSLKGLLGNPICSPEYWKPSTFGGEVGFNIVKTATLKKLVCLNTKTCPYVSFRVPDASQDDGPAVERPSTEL

CCCC1(CC(=O)O)CCC(=O)c2c1[nH]c1c(F)ccc(F)c21 (stereo not shown) [Example 16, (5,8-Difluoro-4-oxo-1-propyl-2,3,4,9-tetrahydro-1H-(carbazol-1-yl))-aceticacid]
inhibition at 1 µM [1, 8]: 29%

CCc1cccc2c3c([nH]c12)C(CC)(CC(=O)O)OCC3=O (stereo not shown) [Example 4, 1,8-Diethyl-4-oxo-1,3,4,9-tetrahydro-pyrano-[3,4-b]indole-1-acetic acid]
pIC50 ([1]; Table 1): 5.72 | pIC50 ([2]; Table 1, rhCOX-1, read-out: % Inhibition of rhCOX-1 (value in parentheses, IC50)): < 3.57

CCC1(CC(=O)O)CCC(=O)c2c1[nH]c1cccc(Cl)c21 (stereo not shown) [Example 12, [1-Ethyl-5-chloro-4-oxo-2,3,4,9-tetrahydro-1H-(carbazol-1-yl)]-acetic acid]
inhibition at 1 µM [1, 8]: 12% | inhibition at 30 µM ([2]; Table 2, rhCOX-1, at 30 μM, read-out: % Inhibn of rhCOX-1): 5%

CCCC1(CC(=O)O)CCC(=O)c2c1[nH]c1cc(F)cc(F)c21 (stereo not shown) [Example 17, (5,7-Difluoro-1-propyl-4-oxo-2,3,4,9-tetrahydro-1H-(carbazol-1-yl))-aceticacid]
inhibition at 1 µM [1, 8]: 13%

CCC1(CC(=O)O)OCC(=O)c2c1[nH]c1cccc(Br)c21 (stereo not shown) [Example 6, (5-Bromo-1-ethyl-4-oxo-1,3,4,9-tetrahydro-pyrano[3,4-b]indol-1-yl)-acetic acid]
pIC50 ([1]; Table 1): 5.96

COc1ccc2c(c1)c(CC(=O)O)c(C)n2C(=O)c1ccc(Cl)cc1 [indomethacin]
usefulness in the treatment of Alzheimer's disease [3]: useful in the treatment of Alzheimer's disease | selectivity for inhibition of COX-2 [4]: relatively non-selective inhibitor of COX-2 | G.I. safety ([5]; literature): adverse G.I. side effects

CCC1(CC(=O)O)OCC(=O)c2c1[nH]c1cccc(Cl)c21 (stereo not shown) [Example 5, (5-Chloro-1-ethyl-4-oxo-1,3,4,9-tetrahydro-pyrano[3,4-b]indol-1-yl)-aceticacid]
pIC50 ([1]; Table 1): 5.92

C=CCc1c(F)ccc2c3c([nH]c12)C(CC)(CC(=O)O)OCC3=O (stereo not shown) [Example 8, 8-Allyl-1-ethyl-7-fluoro-4-oxo-1,3,4,9-tetrahydropyrano[3,4-b]indole-1-acetic acid]
pIC50 ([1]; Table 1): 6.43 | inhibition at 3 µM ([2]; Table 1, rhCOX-1, at 3 μM): 78%

CCCC1(CC(=O)O)OCC(=O)c2c1[nH]c1ccccc21 (stereo not shown) [Example 2, (1-Propyl-4-oxo-1,3,4,9-tetrahydro-pyrano[3,4-b]indol-1-yl)-acetic acid]
pIC50 ([1]; Table 1): 5.49 | inhibition at 90 µM [2, 9]: 44%

CCc1cccc2c3c([nH]c12)C(CC)(CC(=O)O)OCC3=O (stereo not shown) [4-oxo metabolite]
activity in blocking prostaglandin synthesis [6]: active in blocking prostaglandin synthesis | oral in vivo antiinflammatory activity [7]: had oral in vivo antiinflammatory activity

CCc1cccc2c3c([nH]c12)C(CC)(CC(=O)O)OCC3=NO (stereo not shown) [Example 18, [1,8-Diethyl-4-hydroxyimino-1,3,4,9-tetrahydro-pyrano[3.4-b]indol-1-yl]-ace tic acid]
inhibition at 3.3 µM [1, 10]: 50% | inhibition at 90 µM [2, 11]: 96%

CCC1(CC(=O)O)CCC(=O)c2c1[nH]c1c(F)c(F)ccc21 (stereo not shown) [Example 14, (7.8-Difluoro-1-ethyl-4-oxo-2,3,4,9-tetrahydro-1H-(carbazol-1-yl))-acetic acid]
pIC50 ([1]; Table 2): 6.15 | inhibition at 23 µM ([2]; Table 2, rhCOX-1, at 23 μM, read-out: % Inhibn of rhCOX-1): 50%

CCC1(CC(=O)O)CCC(=O)c2c1[nH]c1ccccc21 (stereo not shown) [Example 9, [1-Ethyl-4oxo-2,3,4,9-tetrahydro-1H-(carbazol-1-yl)]-acetic acid]
inhibition at 3 µM [1, 8]: 26%

CCc1cccc2c3c([nH]c12)C(CC)(CC(=O)O)CCC3=NO (stereo not shown) [Example 20, (1,8-Diethyl-4-hydroxyimino-2,3,4,9-tetrahydro-1H-carbazol-1-yl)-acetic acid]
inhibition at 1 µM [1, 10]: 18%

CCC1(CC(=O)O)OCC(=O)c2c1[nH]c1cccc(C#N)c21 (stereo not shown) [Example 7, 5-Cyano-1-ethyl-4-oxo-1,3,4,9-tetrahydropyrano[3,4-b]indole-1-acetic acid]
inhibition at 1 µM [1, 12]: 7%

CCC1(CC(=O)O)CCC(=O)c2c1[nH]c1c(F)ccc(F)c21 (stereo not shown) [Example 13, (1-Ethyl-5,8-difluoro-4-oxo-2,3,4,9-tetrahydro-1H-(carbazol-1-yl))-acetic acid]
inhibition at 1 µM [1, 8]: 25%

CCc1cccc2c3c([nH]c12)C(CC)(CC(=O)O)CCC3=O (stereo not shown) [Example 10, [1,8-Diethyl-4-oxo-2,3,4,9-tetrahydro-1H-(carbazol-1-yl)]-acetic acid]
pIC50 ([1]; Table 2): 5.70 | inhibition at 90 µM [2, 13]: 26%

C=CCC1(CC(=O)O)CCC(=O)c2c1[nH]c1c(F)ccc(F)c21 (stereo not shown) [Example 15, (1-Allyl-5,8-difluoro-4-oxo-2,3,4,9-tetrahydro-1H-(carbazol-1-yl))-acetic acid]
inhibition at 1 µM [1, 8]: 30%

CCC1(CC(=O)O)OCC(=O)c2c1[nH]c1ccccc21 (stereo not shown) [Example 1, (1-Ethyl-4-oxo-1,3,4,9-tetrahydro-pyrano[3,4-b]indol-1-yl)-acetic acid]
pIC50 ([1]; Table 1): 5.68 | inhibition at 90 µM [2, 9]: 43%

CCc1cccc2c3c([nH]c12)C(CC)(CC(=O)O)OCC3=NNS(C)(=O)=O (stereo not shown) [Example 19, [1,8-Diethyl-4-(methanesulfonyl-hydrazono)-1,3,4,9-tetrahydro-pyrano [3,4-b]indol-1-yl]-acetic acid sodium salt]
inhibition at 3.3 µM [1, 10]: 50% | inhibition at 90 µM [2, 11]: 96%

CCC1(CC(=O)O)CCC(=O)c2c1[nH]c1c(C(C)C)cccc21 (stereo not shown) [Example 11, [1-Ethyl-8-isopropyl-4-oxo-2,3,4,9-tetrahydro-1H-(carbazol-1-yl)]-acetic acid]
inhibition at 3 µM [1, 8]: 40% | inhibition at 90 µM [2, 13]: 85%

CCc1cccc2c3c([nH]c12)C(CC)(CC(=O)O)OCC3 (stereo not shown) [etodolac]
selectivity for inhibition of COX-2 [4]: tenfold | G.I. safety ([5]; in vivo): improved G.I. safety

COCC1(CC(=O)O)OCC(=O)c2c1[nH]c1ccccc21 (stereo not shown) [Example 3, (1-Methoxymethyl-4-oxo-1,3,4,9-tetrahydro-pyrano[3,4-b]indol-1-yl)-acetic acid]
inhibition at 3 µM [1, 12]: 8%
